Experimental data as given in ChEMBL document CHEMBL1201862, “PubChem BioAssay data set” (2004).
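96-well plates; 48 h exposure; 5 concentrations. Endpoints by linear interpolation between flanking doses. Not reached: highest tested concentration assigned. The concentration for 50% growth inhibition is given as GI50.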 Calls of active or inactive are those of the source. Cut-off read from the data, not from the text of the source: active = GI50 up to about 1.1 µM and inactive = higher.

Key:
Experiment in all cases: DTP human tumour cell line panel, 48 h
SF-295 = system: SF-295
SNB-19 = system: SNB-19
HT-29 = system: HT-29
EKVX = system: EKVX
MOLT-4 = system: MOLT-4
LOX IMVI = system: LOX IMVI
SF-268 = system: SF-268
NCI-H23 = system: NCI-H23
UO-31 = system: UO-31
OVCAR-8 = system: OVCAR-8
SK-MEL-2 = system: SK-MEL-2
HL-60 = system: HL-60
NCI-H522 = system: NCI-H522
RXF 393 = system: RXF 393
U-251 = system: U-251
OVCAR-3 = system: OVCAR-3
NCI-H226 = system: NCI-H226
HCT-116 = system: HCT-116
UACC-62 = system: UACC-62
TK-10 = system: TK-10

Measured: GI50

O=C(O)C1(Cc2ccccc2)Cc2ccccc2C1
inactive: SF-295 > 100 µM | SNB-19 > 100 µM | HT-29 > 100 µM | EKVX > 100 µM | MOLT-4 > 100 µM | LOX IMVI > 100 µM | SF-268 > 100 µM | NCI-H23 > 100 µM | UO-31 > 100 µM | OVCAR-8 > 100 µM | SK-MEL-2 > 100 µM | HL-60 > 100 µM | NCI-H522 > 100 µM | RXF 393 69.7 µM | U-251 > 100 µM | OVCAR-3 > 100 µM | NCI-H226 > 100 µM | HCT-116 > 100 µM | UACC-62 > 100 µM | TK-10 > 100 µM

CC12CCC3=C(CSC4=C3CSc3ccccc34)C1=CCCC2=O (centres undefined)
inactive: SNB-19 66.5 µM | HT-29 34.1 µM | EKVX 42.5 µM | MOLT-4 16.8 µM | LOX IMVI 69.8 µM | SF-268 > 100 µM | NCI-H23 > 100 µM | UO-31 70.1 µM | OVCAR-8 78.5 µM | SK-MEL-2 64.3 µM | HL-60 73.1 µM | NCI-H522 27.4 µM | RXF 393 40.2 µM | U-251 42.8 µM | OVCAR-3 13.5 µM | NCI-H226 64.3 µM | HCT-116 58.3 µM | TK-10 38 µM

CCCO/N=[N+](\[O-])N(CC)CC
inactive: SF-295 > 100 µM | SNB-19 > 100 µM | HT-29 > 100 µM | EKVX > 100 µM | MOLT-4 > 100 µM | LOX IMVI > 100 µM | SF-268 > 100 µM | NCI-H23 > 100 µM | UO-31 > 100 µM | OVCAR-8 > 100 µM | SK-MEL-2 > 100 µM | HL-60 > 100 µM | NCI-H522 > 100 µM | RXF 393 > 100 µM | U-251 > 100 µM | OVCAR-3 > 100 µM | NCI-H226 > 100 µM | HCT-116 > 100 µM | UACC-62 > 100 µM | TK-10 > 100 µM

Cc1c(/N=C/C=C/c2ccccc2)c(=O)n(-c2ccccc2)n1C
inactive: SF-295 14.4 µM | SNB-19 30.1 µM | HT-29 27.5 µM | EKVX 27.2 µM | MOLT-4 12.9 µM | LOX IMVI 4.86 µM | SF-268 33.6 µM | NCI-H23 23.4 µM | UO-31 36.5 µM | OVCAR-8 17.4 µM | SK-MEL-2 88.7 µM | HL-60 16.1 µM | NCI-H522 50.8 µM | RXF 393 39.7 µM | U-251 15.6 µM | OVCAR-3 24.5 µM | NCI-H226 13.6 µM | HCT-116 13.7 µM | UACC-62 17.2 µM | TK-10 30.2 µM

CN(C)CCCNC(=O)c1cccc2ccccc12
inactive: SF-295 > 100 µM | SNB-19 > 100 µM | HT-29 > 100 µM | MOLT-4 > 100 µM | LOX IMVI > 100 µM | SF-268 > 100 µM | NCI-H23 > 100 µM | UO-31 > 10 µM | OVCAR-8 > 100 µM | SK-MEL-2 > 100 µM | HL-60 12.7 µM | NCI-H522 > 100 µM | RXF 393 > 100 µM | U-251 > 100 µM | OVCAR-3 > 100 µM | NCI-H226 > 100 µM | HCT-116 > 100 µM | UACC-62 > 100 µM | TK-10 > 100 µM

C[N+](C)(CCCCCC[N+](C)(C)CCCN1C(=O)c2cccc3cccc(c23)C1=O)CCCN1C(=O)c2cccc3cccc(c23)C1=O
inactive: SF-295 41.7 µM | SNB-19 > 100 µM | HT-29 > 100 µM | EKVX > 100 µM | MOLT-4 > 100 µM | LOX IMVI > 100 µM | SF-268 > 100 µM | NCI-H23 > 100 µM | UO-31 > 100 µM | OVCAR-8 > 100 µM | SK-MEL-2 > 100 µM | HL-60 > 100 µM | NCI-H522 > 100 µM | RXF 393 > 100 µM | U-251 > 100 µM | OVCAR-3 84.9 µM | HCT-116 72.8 µM | UACC-62 33 µM | TK-10 > 100 µM

C[C@H]1SC(c2ccc(Cl)cc2Cl)N(NC(=O)c2ccncc2)C1=O (some centres undefined)
inactive: SF-295 49.1 µM | SNB-19 43.2 µM | HT-29 53 µM | EKVX 31.1 µM | MOLT-4 > 10 µM | SF-268 22.5 µM | NCI-H23 33.3 µM | UO-31 25.3 µM | OVCAR-8 49.9 µM | SK-MEL-2 24.3 µM | HL-60 28.9 µM | NCI-H522 22.6 µM | RXF 393 14.7 µM | U-251 40.6 µM | OVCAR-3 42 µM | NCI-H226 18.5 µM | HCT-116 20 µM | UACC-62 26.2 µM
